Laboratory results as given in ChEMBL document CHEMBL3039007, “Structure-based identification of OATP1B1/3 inhibitors” (Mol Pharmacol, 2013).
Residues, ends and D or L forms follow the SMILES beside them.

Assays:
[1] = target: T1, Solute carrier organic anion transporter family member 1B1 (Homo sapiens, UniProt Q9Y6L6); settings: chinese hamster, cho, 10 µM
T1 sequence (Q9Y6L6 whole entry): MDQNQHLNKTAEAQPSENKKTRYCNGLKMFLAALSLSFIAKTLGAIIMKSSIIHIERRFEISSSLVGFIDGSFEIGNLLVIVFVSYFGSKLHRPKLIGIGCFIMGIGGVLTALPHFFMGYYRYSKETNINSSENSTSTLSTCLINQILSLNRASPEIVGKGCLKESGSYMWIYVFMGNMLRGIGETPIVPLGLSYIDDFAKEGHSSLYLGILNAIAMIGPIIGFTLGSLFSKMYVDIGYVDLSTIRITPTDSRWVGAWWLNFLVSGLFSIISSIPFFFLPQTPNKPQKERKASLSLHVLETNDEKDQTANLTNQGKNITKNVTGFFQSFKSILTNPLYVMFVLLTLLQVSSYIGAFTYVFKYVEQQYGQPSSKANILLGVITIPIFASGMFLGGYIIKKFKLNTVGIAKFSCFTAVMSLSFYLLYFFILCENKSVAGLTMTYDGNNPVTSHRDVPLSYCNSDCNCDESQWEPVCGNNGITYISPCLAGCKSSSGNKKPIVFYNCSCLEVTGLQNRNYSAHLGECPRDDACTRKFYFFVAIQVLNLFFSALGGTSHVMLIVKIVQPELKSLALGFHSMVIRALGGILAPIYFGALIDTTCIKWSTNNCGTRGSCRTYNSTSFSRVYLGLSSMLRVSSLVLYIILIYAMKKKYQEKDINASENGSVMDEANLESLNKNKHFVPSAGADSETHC

[2] = target: T2, Solute carrier organic anion transporter family member 1B3 (Homo sapiens, UniProt Q9NPD5); settings: chinese hamster, cho, 10 µM
T2 sequence (Q9NPD5 whole entry): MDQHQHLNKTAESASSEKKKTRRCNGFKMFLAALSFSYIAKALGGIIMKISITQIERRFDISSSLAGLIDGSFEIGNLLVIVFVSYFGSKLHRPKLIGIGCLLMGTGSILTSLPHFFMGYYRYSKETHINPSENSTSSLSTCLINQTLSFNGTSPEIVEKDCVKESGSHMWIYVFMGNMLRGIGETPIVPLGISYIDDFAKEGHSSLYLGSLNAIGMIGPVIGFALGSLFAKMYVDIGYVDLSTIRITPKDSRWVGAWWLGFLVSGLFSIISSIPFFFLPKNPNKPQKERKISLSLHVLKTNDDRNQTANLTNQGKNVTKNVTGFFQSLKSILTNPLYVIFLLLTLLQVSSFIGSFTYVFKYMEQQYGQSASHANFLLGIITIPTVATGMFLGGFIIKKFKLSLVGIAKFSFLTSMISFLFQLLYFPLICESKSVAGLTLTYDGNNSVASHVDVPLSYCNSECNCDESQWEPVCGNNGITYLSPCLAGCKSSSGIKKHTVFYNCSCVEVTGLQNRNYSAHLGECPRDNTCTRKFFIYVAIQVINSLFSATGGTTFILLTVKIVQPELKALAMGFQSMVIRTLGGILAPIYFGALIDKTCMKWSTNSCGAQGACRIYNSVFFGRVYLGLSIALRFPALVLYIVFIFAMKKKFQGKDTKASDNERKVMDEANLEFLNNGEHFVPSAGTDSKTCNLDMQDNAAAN

| Compound | residual activity [1] | residual activity [2] |
| --- | --- | --- |
| CCC[C@H]1CC2=C(C[C@@H](CC)CC3=C1C(=O)OC3=O)C(=O)OC2=O [BYSSOCHLAMIC ACID] | 87.32% | 102.5% |
| Cl.NCCc1cc(O)c(O)cc1O [OXIDOPAMINE HYDROCHLORIDE] | 80.99% | 100.5% |
| O=C(O)c1cc2cc(Cl)ccc2[nH]1 [5-CHLOROINDOLE-2-CARBOXYLIC ACID] | 75.02% | 91.36% |
| CNNC.Cl [1,2-DIMETHYLHYDRAZINE HYDROCHLORIDE] | 108.5% | 99.77% |
| CC(=O)[C@@]1(O)CC[C@H]2[C@@H]3C[C@H](C)C4=CC(=O)C=C[C@]4(C)[C@@]3(F)[C@@H](O)C[C@@]21C [FLUOROMETHOLONE] | 85.71% | 105.7% |
| CC(C)CCC[C@@H](C)[C@H]1CC[C@H]2[C@@H]3CC[C@H]4CC(=O)CC[C@]4(C)[C@H]3CC[C@]12C [CHOLESTAN-3-ONE] | 74.43% | 73.06% |
| COC(=O)[C@@H]1OC(=O)[C@H]2O[C@]23[C@@]2(C)[C@H](CC[C@@]13C)[C@@]1(C)CCC(=O)C(C)(C)[C@@H]1C[C@H]2OC(C)=O | 49.67% | 99.12% |
| CC[S+]([O-])CCSP(=O)(OC)OC (stereo not given) [OXDEMETONMETHYL] | 116.8% | 94.08% |
| O=C1OC(c2ccc(O)cc2)(c2ccc(O)cc2)c2ccccc21 [PHENOLPHTHALEIN] | 20.62% | 37.96% |
| C=C(C)[C@@H]1CC=C(CO)CC1 [PERILLYL ALCOHOL] | 84.39% | 91.29% |
| O=c1oc2c(O)c(O)cc3c(=O)oc4c(O)c(O)cc1c4c23 [ELLAGIC ACID] | 75.25% | 65.47% |
| CCc1cccc(C)c1N(C(=O)CCl)C(C)COC (stereo not given) [METOLACHOR] | 93.33% | 101.7% |
| NC[C@H]1O[C@H](O[C@H]2[C@H](O[C@@H]3O[C@H](CO)[C@@H](O)[C@H]3O)[C@@H](O)[C@H](N)C[C@@H]2N)[C@H](N)[C@@H](O)[C@@H]1O.O=S(=O)(O)O | 107.3% | 98.01% |
| Cc1ccccc1OCC(O)CO (stereo not given) [MEPHENESIN] | 101% | 107.5% |
| CCC(C)C(=O)O[C@@H]1C[C@]2(C)[C@H](c3ccoc3)OC(=O)CC23OC2(C)OC34[C@H](OC(=O)C(C)C)[C@@]3(O)[C@@H](OC(=O)[C@]5(C)O[C@H]5C)[C@]5(C)C[C@@]3(O)[C@@](C)([C@H]5CC(=O)OC)C14O2 (stereo not given in full) | -0.3887% | 0.6163% |
| OC[C@H]1O[C@@H](Oc2ccc(O)cc2)[C@H](O)[C@@H](O)[C@@H]1O [ARBUTIN] | 103.7% | 113.4% |
| Clc1ccc(C(c2ccccc2Cl)C(Cl)Cl)cc1 (stereo not given) [MITOTANE] | 107.6% | 98.27% |
| CC1(C)C(=O)C=C[C@]2(C)[C@H]3CC[C@@]4(C)[C@H](c5ccoc5)OC(=O)[C@H]5O[C@]54[C@]3(C)C(=O)C[C@@H]12 [DEACETOXY-7-OXOGEDUNIN] | 40.28% | 85.14% |
| CCOC(=O)C(C)(C)Oc1ccc(Cl)cc1 [CLOFIBRATE] | 114.7% | 127.7% |
| CN(C)C(=O)Nc1ccc(Cl)c(Cl)c1 [DCMU] | 105.4% | 99% |
| N[C@@H](Cc1ccccc1)C(=O)N[C@@H](Cc1ccc(O)cc1)C(=O)O [PHENYLALANYLTYROSINE] (H-Phe-Tyr-OH) | 78.59% | 68.6% |
| CC(=O)O[C@H]1C[C@@]2(C)[C@@H](C[C@@H](O)[C@H]3[C@@]4(C)CC[C@@H](O)[C@@H](C)[C@@H]4CC[C@@]32C)/C1=C(\CCC=C(C)C)C(=O)O [FUSIDIC ACID] | 39.52% | 58.34% |
| O=[N+]([O-])c1cc([As](=O)(O)O)ccc1O [ROXARSONE] | 82.84% | 90.61% |

| Compound | residual activity [1] | residual activity [2] |
| --- | --- | --- |
| CN1CCN(CCCN2c3ccccc3Sc3ccc(C(F)(F)F)cc32)CC1.Cl | 146.4% | 70.51% |
| O=C(O)c1ccccc1OP(=O)(O)O [FOSFOSAL] | 68.68% | 92.75% |
| CC12CCCC(O)(C1)C1CC(C)(C)C1CC2 (stereo not drawn) [beta-CARYOPHYLLENE ALCOHOL] | 117.4% | 113% |
| COc1ccc([C@@H](C)C(=O)c2ccc(O)cc2O)cc1 [ANGOLENSIN (R)] | 114.1% | 126.8% |
| COc1cc([C@@H]2c3cc4c(cc3[C@@H](O)[C@H]3COC(=O)[C@H]23)OCO4)cc(OC)c1O [4'-DEMETHYLEPIPODOPHYLLOTOXIN] | 42.52% | 69.62% |
| C=CCN1CC[C@]23c4c5ccc(O)c4O[C@H]2C(=O)CC[C@@]3(O)[C@H]1C5.Cl [NALOXONE HYDROCHLORIDE] | 111.5% | 113.7% |
| CN[C@@H]1[C@H](O)[C@H](NC)[C@H]2O[C@@]3(O)C(=O)C[C@@H](C)O[C@H]3O[C@@H]2[C@H]1O.Cl | 89.17% | 96.23% |
| Cn1c(=O)c2c(ncn2C)n(C)c1=O [CAFFEINE] | 103.6% | 90.35% |
| CCOC(N)=O | 109.1% | 101.6% |
| COc1ccc(C(=O)O[C@H]2CC[C@@]3(C)[C@@H]4CC[C@H]5[C@]6(O)C[C@H](O)[C@@]7(O)[C@@H](CN8C[C@@H](C)CC[C@H]8[C@@]7(C)O)[C@]6(O)C[C@@]53O[C@]24O)cc1OC [VERATRIDINE] | 82.28% | 133.7% |
| COc1ccc(C2COc3cc(O)ccc3C2)c(OC)c1O (racemic) [MUCRONULATOL(+/-)] | 87.17% | 87.73% |
| CC(=O)OCC(CCn1cnc2cnc(N)nc21)COC(C)=O [FAMCICLOVIR] | 68.22% | 68.05% |
| CCOCN(C(=O)CCl)c1c(C)cccc1CC [ACETOCHLOR] | 74.59% | 84.4% |
| Nc1ccc(S(=O)(=O)Nc2nccs2)cc1 [SULFATHIAZOLE] | 89.12% | 85.21% |
| O=C(Cc1ccccc1)NO [PHENYLACETOHYDROXAMIC ACID] | 58.46% | 75.25% |
| Oc1c(Cl)cc(Cl)c2cccnc12 [CHLOROXINE] | 43.47% | 62.22% |
| Cc1nc2sccn2c(=O)c1CCN1CCC(=C(c2ccc(F)cc2)c2ccc(F)cc2)CC1 [RITANSERIN] | 96.72% | 101.7% |
| C[N+]1(C)C[C@@H](O)C[C@@H]1C(=O)[O-] [BETONICINE] | 89.8% | 105.3% |
| Oc1ccc2c(c1)OC[C@H]1c3cc4c(cc3O[C@@H]21)OCO4 [MAACKIAIN] | 108.2% | 114.4% |
| C=C[C@H]1CN2CC[C@H]1C[C@@H]2[C@@H](O)c1ccnc2ccc(OC)cc12.O=C(O)[C@H](O)[C@@H](O)[C@H](O)[C@H](O)CO [QUINIDINE GLUCONATE] | 103.2% | 122% |
| CO[C@H]1C[C@H](O[C@@H]2/C(C)=C/C[C@@H]3C[C@@H](C[C@]4(CC[C@H](C)[C@@H](C5CCCCC5)O4)O3)OC(=O)[C@@H]3C=C(C)/C(=N/O)[C@H]4OC/C(=C\C=C\[C@@H]2C)[C@]43O)O[C@@H](C)[C@@H]1O [SELAMECTIN] | 98.02% | 93.37% |
| Cl[C@H]1[C@H](Cl)[C@@H](Cl)[C@@H](Cl)[C@H](Cl)[C@H]1Cl [LINDANE] | 79.82% | 90.09% |
